In ChEMBL document CHEMBL1122434, “Antitumor amino-substituted pyrido[3',4':4,5]pyrrolo[2,3-g]isoquinolines and pyrido[4,3-b]carbazole derivatives: synthesis and evaluation of compounds resulting from new side chain and heterocycle modifications” (J Med Chem, 1983):
Numbered stars: 1 amine (or outer) side, 2 acyl side, 3 side chain; on linkers, the order of the positions; unused ones are H or OH. Bridge positions count the residues as written; N and C are the ends. Square brackets hold non-standard residues; d marks the D form. Peptide text beside a SMILES is read from it. I, II: the chains in the order shown. Actinocin(1to9) = Cc1c2oc3c(C)ccc(C(=O)[*:2])c3nc-2c(C(=O)[*:1])c(N)c1=O; NMeV = CN[C@H](C(=O)O)C(C)C; Sar = CNCC(=O)O

Legend:
L1210 [1] = experiment: Antitumor activity against L1210 leukemia cells measured as Median survival time at 10 mg/kg; type: functional, Mus musculus
L1210 [2] = experiment: In vitro cytotoxicity against L1210 cell line as concentration required for 50% inhibition of cell growth; type: functional; settings: Mus musculus, read-out: ID50 (the source's name)
[3] = Acute toxicity in mice (LD0) after i.p. administration (highest nontoxic dose); type: organism-based; settings: mouse, in vivo, ip; read-out: LD0
L1210 [4] = experiment: Antitumor activity against L1210 leukemia cells measured as range of death at 10 mg/kg; value may range from 12 to 25; type: functional, Mus musculus
L1210 [5] = experiment: Antitumor activity against L1210 leukemia cells measured as percent increase in life span (% ILS) at 10 mg/kg; type: functional; settings: Mus musculus
Mus musculus = experiment: Acute toxicity in mice (LD100) after i.p. administration; type: organism-based; settings: in vivo, ip
L1210 [6] = experiment: Cytotoxicity against L1210 tumor cell line, activity is expressed as K (inverse value of drug concentration); type: functional, cell-based; settings: Mus musculus
L1210 [7] = experiment: Antitumor activity against L1210 leukemia cells measured as range of death at 10 mg/kg; value may range from 16 to 42; type: functional, Mus musculus
L1210 [8] = experiment: Antitumor activity against L1210 leukemia cells measured as range of death at 10 mg/kg; value may range from 8 to 20; type: functional, Mus musculus
L1210 [9] = experiment: Antitumor activity against L1210 leukemia cells measured as range of death at 15 mg/kg; value may range from 7 to 44; settings: Mus musculus
L1210 [10] = experiment: Antitumor activity against L1210 leukemia cells measured as Median survival time at 15 mg/kg; type: functional, Mus musculus
L1210 [11] = experiment: Antitumor activity against L1210 leukemia cells measured as range of death at 20 mg/kg; value may range from 9 to 12; type: functional, Mus musculus
L1210 [12] = experiment: Antitumor activity against L1210 leukemia cells measured as Median survival time at 20 mg/kg; type: functional, Mus musculus
L1210 [13] = experiment: Antitumor activity against L1210 leukemia cells measured as range of death at 15 mg/kg; value may range from 12 to 19; type: functional, Mus musculus
L1210 [14] = experiment: Antitumor activity against L1210 leukemia cells measured as range of death at 20 mg/kg; value may range from 15 to 19; type: functional, Mus musculus
L1210 [15] = experiment: Antitumor activity against L1210 leukemia cells measured as range of death at 2.5 mg/kg; value may range from 14 to 19; type: functional, Mus musculus
L1210 [16] = experiment: Antitumor activity against L1210 leukemia cells measured as Median survival time at 2.5 mg/kg; type: functional, Mus musculus
L1210 [17] = experiment: Antitumor activity against L1210 leukemia cells measured as Median survival time at 12 mg/kg; type: functional, Mus musculus
L1210 [18] = experiment: Antitumor activity against L1210 leukemia cells measured as range of death at 12 mg/kg; value may range from 12 to 14; type: functional, Mus musculus
L1210 [19] = experiment: Antitumor activity against L1210 leukemia cells measured as range of death at 10 mg/kg; value may range from 16 to 20; settings: Mus musculus
L1210 [20] = experiment: Antitumor activity against L1210 leukemia cells measured as range of death at 10 mg/kg; type: functional, Mus musculus
L1210 [21] = experiment: Antitumor activity against L1210 leukemia cells measured as range of death at 10 mg/kg; value may range from 8 to 28; type: functional, Mus musculus
L1210 [22] = experiment: Antitumor activity against L1210 leukemia cells measured as range of death at 2.5 mg/kg; value may range from 12 to 19; type: functional, Mus musculus
L1210 [23] = experiment: Antitumor activity against L1210 leukemia cells measured as range of death at 20 mg/kg; value may range from 14 to 17; type: functional, Mus musculus
L1210 [24] = experiment: Antitumor activity against L1210 leukemia cells measured as range of death at 15 mg/kg; value may range from 19 to 35; type: functional, Mus musculus
L1210 [25] = experiment: Antitumor activity against L1210 leukemia cells measured as Median survival time at 3.75 mg/kg; type: functional, Mus musculus
L1210 [26] = experiment: Antitumor activity against L1210 leukemia cells measured as range of death at 3.75 mg/kg; value may range from 15 to 21; type: functional, Mus musculus
L1210 [27] = experiment: Antitumor activity against L1210 leukemia cells measured as Median survival time at 12.5 mg/kg; type: functional, Mus musculus
L1210 [28] = experiment: Antitumor activity against L1210 leukemia cells measured as range of death at 12.5 mg/kg; value may range from 12 to 27; type: functional, Mus musculus
L1210 [29] = experiment: Antitumor activity against L1210 leukemia cells measured as range of death at 25 mg/kg; value may range from 14 to 19; settings: Mus musculus
L1210 [30] = experiment: Antitumor activity against L1210 leukemia cells measured as Median survival time at 25 mg/kg; type: functional, Mus musculus
L1210 [31] = experiment: Antitumor activity against L1210 leukemia cells measured as range of death at 10 mg/kg; value may range from 14 to 19; type: functional, Mus musculus
L1210 [32] = experiment: Antitumor activity against L1210 leukemia cells measured as range of death at 20 mg/kg; value may range from 14 to 25; type: functional, Mus musculus

| SMILES | MST (L1210 [1]) [days] | IC50 (L1210 [2]) [nM] | MTD [3] [mg/kg] | ILS at 10 mg/kg (L1210 [5]) [%] | LD100 (Mus musculus) [mg/kg] | K (L1210 [6]) [µM⁻¹] | also measured |
| --- | --- | --- | --- | --- | --- | --- | --- |
| CCNCCCNc1nccc2c(C)c3[nH]c4ccc(OC)cc4c3cc12 | 14.8 | 600 | 20 | 26 | 30 | 1.7 | Range of death (L1210 [4]): 25 days |
| CCNCCCNc1nccc2c(C)c3[nH]c4ccncc4c3cc12 | 25 | 100 | 20 | 114 | 30 | 10 | Range of death (L1210 [7]): 42 days |
| Cc1c2c(NCCCN(C)C)nccc2c(C)c2c1c1cc(O)ccc1n2C | 16.3 | 30 | 10 | 68 | 50 | 33 | Range of death (L1210 [8]): 20 days |
| Cc1c2ccnc(NCCCN(C)C)c2c(C)c2c1[nH]c1ccncc12 | – | 8 | 15 | – | 20 | 125 | Range of death (L1210 [9]): 44 days; MST (L1210 [10]): 25.2 days |
| CCN(CC)CCNc1nccc2c(C)c3c(cc12)c1cc(OC)ccc1n3C | – | 2000 | 20 | – | 30 | 0.5 | Range of death (L1210 [11]): 12 days; MST (L1210 [12]): 11 days |
| CCN(CC)CCCNc1nccc2c(C)c3[nH]c4ccc(OC)cc4c3cc12 | – | 5000 | 20 | – | 40 | 0.2 | MST (L1210 [10]): 14.3 days; Range of death (L1210 [13]): 19 days |
| CCN(CCCN)CCCNc1nccc2c(C)c3[nH]c4ccncc4c3cc12 | – | 200 | 20 | – | 40 | 5 | MST (L1210 [12]): 17 days; Range of death (L1210 [14]): 19 days |
| CCN(CC)CCCNc1nccc2c(C)c3[nH]c4ccc(O)cc4c3c(C)c12 | – | 30 | 3 | – | 10 | 33 | Range of death (L1210 [15]): 19 days; MST (L1210 [16]): 16.5 days |
| CCN(CC)CCCNc1nccc2c(C)c3c(cc12)c1cc(O)ccc1n3C | – | 60 | 12.5 | – | 25 | 16 | MST (L1210 [17]): 13 days; Range of death (L1210 [18]): 14 days |
| CCN(CC)CCCNc1nccc2c(C)c3[nH]c4ccncc4c3c(C)c12 | 16.8 | 7 | 10 | 46 | 20 | 143 | Range of death (L1210 [19]): 20 days |
| COc1ccc2[nH]c3c(C)c4ccnc(NCCCN(CCCl)CCCl)c4cc3c2c1 | 13.6 | 200 | 15 | 26 | 20 | 5 | Range of death (L1210 [20]): 12 days |
| CCNCCCNc1nccc2c(C)c3[nH]c4ccc(OC)cc4c3c(C)c12 | 20 | 100 | 16 | 84 | 20 | 10 | Range of death (L1210 [21]): 28 days |
| CCN(CC)CCCNc1nccc2c(C)c3[nH]c4ccc(O)cc4c3cc12 | – | 20 | 2.5 | – | 7 | 50 | Range of death (L1210 [15]): 19 days; MST (L1210 [16]): 16.4 days |
| CCNCCCNc1nccc2c(C)c3c(c(C)c12)c1cc(O)ccc1n3C | – | 20 | 10 | – | 25 | 50 | Range of death (L1210 [22]): 19 days; MST (L1210 [16]): 14.5 days |
| Cc1c2ccnc(NCC(O)CO)c2cc2c3c[nH]ccc-3nc12 (stereo not given) | – | 250 | 40 | – | 60 | 4 | MST (L1210 [12]): 16 days; Range of death (L1210 [23]): 17 days |
| CCN(CC)CCCNc1nccc2c(C)c3[nH]c4ccc(OC)cc4c3c(C)c12 [RETELLIPTINE] | – | 30 | 15 | – | 60 | 30 | Range of death (L1210 [24]): 35 days; MST (L1210 [10]): 29.5 days |
| COc1ccc2[nH]c3c(C)c4ccnc(NCCCN(CCO)CCO)c4c(C)c3c2c1 | – | 400 | 10 | – | 15 | 2.5 | MST (L1210 [25]): 18.4 days; Range of death (L1210 [26]): 21 days |
| CCN(CC)CC(O)CNc1nccc2c(C)c3[nH]c4ccncc4c3cc12 (stereo not given) | – | 50 | 25 | – | 40 | 20 | MST (L1210 [27]): 16.3 days; Range of death (L1210 [28]): 27 days |
| Cc1c2oc3c(C)ccc(C(=O)N[C@@H]4C(=O)N[C@H](C(C)C)C(=O)N5CCC[C@H]5C(=O)N(C)CC(=O)N(C)[C@@H](C(C)C)C(=O)O[C@@H]4C)c3nc-2c(C(=O)N[C@@H]2C(=O)N[C@H](C(C)C)C(=O)N3CCC[C@H]3C(=O)N(C)CC(=O)N(C)[C@@H](C(C)C)C(=O)O[C@@H]2C)c(N)c1=O [DACTINOMYCIN] (I: T[dV]P[Sar][NMeV] / II: T[dV]P[Sar][NMeV]; ester I:1-I:C, II:1-II:C; linker I:N-II:N via Actinocin(1to9)) | – | 1 | – | – | – | 1000 | – |
| Cc1c2ccnc(NCCCN(CCO)CCO)c2cc2c3c[nH]ccc-3nc12 | – | 600 | 30 | – | 100 | 1.7 | Range of death (L1210 [29]): 19 days; MST (L1210 [30]): 15.5 days |
| CCN(CC)CCCNc1nccc2c(C)c3c(c(C)c12)c1cc(O)ccc1n3C | 16.1 | 200 | 12 | 66.5 | 25 | 5 | Range of death (L1210 [31]): 19 days |
| CCN(CC)CCCNc1nccc2c(C)c3[nH]c4ccncc4c3cc12 [PAZELLIPTINE] | – | 20 | 25 | – | 30 | 50 | Range of death (L1210 [32]): 25 days; MST (L1210 [12]): 20.5 days |
